From the supplement of paper PMC10307832

Legend:
Assay in all cases: relative viability (nuclei count vs DMSO), 5 days (fraction); higher = more cells survive
Crenolanib = compound: CC1(COc2ccc3c(c2)ncn3-c2ccc3cccc(N4CCC(N)CC4)c3n2)COC1 [Crenolanib]
Outline: (§1)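 A plate was accepted only when its control CV was below 25% and the cells had doubled at least once. Viability is defined from nuclear counts as treated wells divided by vehicle wells, with the median taken across plates. That median covers lung cancer cell lines grown in 1536-well plates, dosed by pinning at five √10-spaced library-drug concentrations, and counted in MetaXpress from 4× Hoechst images after 5 days.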

Tivantinib = compound: O=C1NC(=O)[C@@H](c2cn3c4c(cccc24)CCC3)[C@@H]1c1c[nH]c2ccccc12 [Tivantinib]
Outline: as §1

Crenolanib + Alpelisib = compound: CC1(COc2ccc3c(c2)ncn3-c2ccc3cccc(N4CCC(N)CC4)c3n2)COC1 [Crenolanib] + Cc1nc(NC(=O)N2CCC[C@H]2C(N)=O)sc1-c1ccnc(C(C)(C)C(F)(F)F)c1 [Alpelisib] (partner 2 µM)
Outline: (§2)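 Each reported value is a median over duplicate plates. It expresses relative viability: treated-well nuclei count divided by vehicle-well nuclei count. Lung cancer cell lines in 1536-well plates were dosed by pin tool a day after seeding, alone with one drug or with a fixed anchor-drug dose plus five library-drug doses (not always all listed) in √10 steps, and nuclei were counted after 5 days.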

Tivantinib + Pemetrexed = compound: O=C1NC(=O)[C@@H](c2cn3c4c(cccc24)CCC3)[C@@H]1c1c[nH]c2ccccc12 [Tivantinib] + Nc1nc2[nH]cc(CCc3ccc(C(=O)N[C@@H](CCC(=O)O)C(=O)O)cc3)c2c(=O)[nH]1 [Pemetrexed] (partner 0.2 µM)
Outline: as §2

Cell Line	relative viability (Crenolanib; 0.01 µM)	relative viability (Crenolanib; 0.03162 µM)	relative viability (Crenolanib; 0.1 µM)	relative viability (Crenolanib; 0.3162 µM)	relative viability (Crenolanib; 1 µM)	relative viability (Tivantinib; 0.01 µM)	relative viability (Tivantinib; 0.03162 µM)	relative viability (Tivantinib; 0.1 µM)	relative viability (Tivantinib; 0.3162 µM)	relative viability (Crenolanib + Alpelisib; first compound 0.01 µM)	relative viability (Crenolanib + Alpelisib; first compound 0.03162 µM)	relative viability (Crenolanib + Alpelisib; first compound 0.1 µM)	relative viability (Crenolanib + Alpelisib; first compound 0.3162 µM)	relative viability (Crenolanib + Alpelisib; first compound 1 µM)	relative viability (Tivantinib + Pemetrexed; first compound 0.01 µM)	relative viability (Tivantinib + Pemetrexed; first compound 0.03162 µM)	relative viability (Tivantinib + Pemetrexed; first compound 0.1 µM)	relative viability (Tivantinib + Pemetrexed; first compound 0.3162 µM)
NCI-H2405	0.999	0.885	0.81	1	0.871	1.07	1.01	0.983	1.03	1	0.76	0.496	0.68	0.691	1.12	1.25	1.09	1.05
NCI-H3122	1.02	0.989	0.98	1.1	1.1	0.986	1	0.923	0.877	0.768	0.81	0.827	0.78	0.979	0.179	0.199	0.196	0.162
PC-3 [JPC-3]	1.08	1.01	0.93	1.06	0.977	1.04	1.13	1.08	0.697	1.07	0.982	0.981	1.02	1.04	1.24	1.27	1.21	0.72
PC-14	1.13	0.92	0.997	1.02	0.821	0.946	0.985	0.99	0.773	1.01	0.969	0.858	1.04	0.894	0.142	0.123	0.147	0.103
RERF-LC-KJ	1.04	1.01	1	1.06	1.02	1.01	1.03	0.996	0.763	0.839	0.761	0.802	1.03	0.73	0.38	0.452	0.445	0.44
SK-LU-1	1.03	1.04	0.755	1.08	1.04	1.08	1.08	0.987	1.01	1.04	0.931	0.703	1.27	0.87	0.935	1.06	0.96	1.04
SK-MES-1	1.05	1.01	0.973	1.06	0.936	1.06	0.912	0.91	0.915	0.849	0.972	0.866	0.916	0.95	0.95	0.913	0.816	0.783
SW 1573	1.01	1.01	0.955	1.01	0.986	1.02	0.866	0.981	0.958	0.824	0.765	0.706	0.954	0.608	0.918	0.797	0.818	0.76
UMC-11	0.963	0.978	0.972	1.01	0.931	0.966	0.842	0.923	1.03	1.06	0.958	0.956	1.14	0.989	0.772	0.759	0.75	0.803
